In ChEMBL document CHEMBL3992548, “Design, synthesis and biological evaluation of 2,4-disubstituted oxazole derivatives as potential PDE4 inhibitors” (Bioorg Med Chem, 2017):

Assays:
[1] = target: 3',5'-cyclic-AMP phosphodiesterase 4B (Homo sapiens, UniProt Q07343); assay: Inhibition of human U937 cells-derived PDE4B using [3H]cAMP as substrate after 30 mins
[2] = system: PBMC; assay: Anti-inflammatory activity in human PBMC assessed as inhibition of LPS-induced TNFalpha secretion preincubated for 30 mins followed by LPS stimulation for 18 hrs by TR-FRET assay; format: functional, cell-based
[3] = target: 3',5'-cyclic-AMP phosphodiesterase 4D (Homo sapiens, UniProt Q08499); assay: Inhibition of human U937 cells-derived PDE4D using [3H]cAMP as substrate after 30 mins
Chain of 3',5'-cyclic-AMP phosphodiesterase 4D (Q08499 whole entry): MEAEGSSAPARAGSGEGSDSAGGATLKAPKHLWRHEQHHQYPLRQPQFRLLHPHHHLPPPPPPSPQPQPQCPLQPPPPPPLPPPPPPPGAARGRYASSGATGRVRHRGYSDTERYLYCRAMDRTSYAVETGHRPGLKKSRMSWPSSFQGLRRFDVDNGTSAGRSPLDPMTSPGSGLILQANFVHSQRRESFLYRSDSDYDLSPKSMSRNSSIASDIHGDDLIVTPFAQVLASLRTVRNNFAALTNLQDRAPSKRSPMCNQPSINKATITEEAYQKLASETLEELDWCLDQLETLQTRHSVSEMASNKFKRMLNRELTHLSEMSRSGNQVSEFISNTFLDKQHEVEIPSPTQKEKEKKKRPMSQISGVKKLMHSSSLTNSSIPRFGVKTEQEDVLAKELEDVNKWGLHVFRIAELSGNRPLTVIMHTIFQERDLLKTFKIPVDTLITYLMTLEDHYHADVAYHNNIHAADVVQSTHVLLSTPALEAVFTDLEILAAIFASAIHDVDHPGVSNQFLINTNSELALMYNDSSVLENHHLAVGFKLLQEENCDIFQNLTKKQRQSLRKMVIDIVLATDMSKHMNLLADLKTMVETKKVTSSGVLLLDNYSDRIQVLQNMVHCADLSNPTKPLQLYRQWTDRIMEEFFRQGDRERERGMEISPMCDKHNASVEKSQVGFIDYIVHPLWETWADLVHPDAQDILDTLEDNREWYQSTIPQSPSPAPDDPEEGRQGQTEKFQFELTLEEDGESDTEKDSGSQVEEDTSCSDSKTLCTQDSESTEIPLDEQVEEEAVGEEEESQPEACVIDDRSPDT

[4] = system: Mus musculus; assay: Anti-inflammatory activity in LPS-induced Swiss albino mouse sepsis model assessed as inhibition of TNF-alpha release in serum at 10 mg/kg, po administered 30 mins prior to LPS challenge measured after 90 mins by ELISA relative to control; format: functional
[5] = system: Rattus norvegicus; assay: Anti-inflammatory activity in Sprague-Dawley rat model of LPS-induced asthma/COPD assessed as inhibition of neutrophilia in lungs at 10 mg/kg, po administered 30 mins prior to LPS challenge for 40 mins measured after 6 hrs relative to control; format: functional

Chain of 3',5'-cyclic-AMP phosphodiesterase 4B (Q07343 whole entry): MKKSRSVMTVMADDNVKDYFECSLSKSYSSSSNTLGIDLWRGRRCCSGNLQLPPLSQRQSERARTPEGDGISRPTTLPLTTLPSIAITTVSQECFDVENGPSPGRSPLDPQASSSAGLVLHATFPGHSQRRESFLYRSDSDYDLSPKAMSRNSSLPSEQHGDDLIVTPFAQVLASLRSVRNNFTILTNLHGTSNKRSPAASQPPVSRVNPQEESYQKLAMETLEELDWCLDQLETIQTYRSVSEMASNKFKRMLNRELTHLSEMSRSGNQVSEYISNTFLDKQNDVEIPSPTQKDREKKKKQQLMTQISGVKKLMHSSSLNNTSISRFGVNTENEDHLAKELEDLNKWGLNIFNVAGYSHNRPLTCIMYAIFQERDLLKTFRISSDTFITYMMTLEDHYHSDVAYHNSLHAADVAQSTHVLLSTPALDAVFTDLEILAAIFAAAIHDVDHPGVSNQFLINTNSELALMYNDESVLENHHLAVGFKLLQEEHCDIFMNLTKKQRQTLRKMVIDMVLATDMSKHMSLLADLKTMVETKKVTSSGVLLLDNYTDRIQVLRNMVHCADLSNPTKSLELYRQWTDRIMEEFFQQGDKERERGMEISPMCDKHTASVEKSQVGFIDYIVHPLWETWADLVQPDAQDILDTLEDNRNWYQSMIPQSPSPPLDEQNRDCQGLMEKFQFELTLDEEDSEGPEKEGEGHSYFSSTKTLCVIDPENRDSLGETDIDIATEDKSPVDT

IC50 [1] | IC50 [3] | Structure (SMILES) | IC50 [2] | inhibition in vivo at 10 mg/kg [4] | inhibition in vivo at 10 mg/kg [5]
54.8 µM |  | Cc1cc(C)n(C(=O)c2coc(-c3ccc(Br)cc3)n2)n1 | 168 µM |  | 
85.6 µM |  | O=C(c1coc(-c2ccccc2O)n1)n1cccn1 | 205 µM |  | 
6.7 µM |  | Cc1ccc(-c2nc(C(=O)n3nc(C)cc3C)co2)cc1 | 36.7 µM |  | 
45.1 µM |  | O=C(c1coc(-c2cccc(F)c2)n1)n1cccn1 | 99.6 µM |  | 
18.4 µM |  | O=C(c1coc(-c2ccc(O)cc2)n1)n1cccn1 | 75.5 µM |  | 
28.9 µM |  | Cc1cc(C)n(C(=O)c2coc(-c3cccc(O)c3)n2)n1 | 78.4 µM |  | 
88.7 µM |  | O=C(c1coc(-c2ccccc2)n1)n1cccn1 | 199 µM |  | 
75.8 µM |  | Cc1cc(C)n(C(=O)c2coc(-c3ccccc3)n2)n1 | 199 µM |  | 
9.8 µM |  | O=C(c1coc(-c2ccc(F)cc2)n1)n1cccn1 | 54.8 µM |  | 
40.8 µM |  | Cc1cc(C)n(C(=O)c2coc(-c3cccc(F)c3)n2)n1 | 83.4 µM |  | 
8.4 µM |  | Cc1cc(C)n(C(=O)c2coc(-c3ccc(F)cc3)n2)n1 | 29.7 µM |  | 
3.2 µM | 8.4 µM | COc1ccc(-c2nc(C(=O)n3cccn3)co2)cc1 | 20.8 µM | 26.1% | 22.4%
1.6 µM | 10.6 µM | COc1ccc(-c2nc(C(=O)n3nc(C)cc3C)co2)cc1 | 10.3 µM | 42.6% | 39.1%
54.8 µM |  | Cc1cc(C)n(C(=O)c2coc(-c3ccccc3O)n2)n1 | 139 µM |  | 
39.7 µM |  | O=C(c1coc(-c2cccc(O)c2)n1)n1cccn1 | 88.4 µM |  | 
15.8 µM |  | Cc1cc(C)n(C(=O)c2coc(-c3ccc(O)cc3)n2)n1 | 66.4 µM |  | 
5.3 µM |  | O=C(c1coc(-c2ccc(Cl)cc2)n1)n1cccn1 | 40.1 µM |  | 
5.9 µM |  | COc1cccc(-c2nc(C(=O)n3cccn3)co2)c1 | 45.8 µM |  | 
58.7 µM |  | O=C(c1coc(-c2ccc(Br)cc2)n1)n1cccn1 | 187 µM |  | 
4.5 µM |  | COc1cccc(-c2nc(C(=O)n3nc(C)cc3C)co2)c1 | 18.7 µM |  | 
17.5 µM |  | Cc1ccc(-c2nc(C(=O)n3cccn3)co2)cc1 | 72.4 µM |  | 
4.1 µM |  | Cc1cc(C)n(C(=O)c2coc(-c3ccc(Cl)cc3)n2)n1 | 27.6 µM |  | 
 |  | COc1ccc(C2CNC(=O)C2)cc1OC1CCCC1 (stereo not drawn) [ROLIPRAM] | 18.6 µM | 40.8% | 30.9%
